According to patent US8524765B2, “Compounds that modulate intracellular calcium” (Calcimedica, Inc., priority 2007, dated 2013):
pIC50: −log10 of the molar value. Entries after “also recorded” stand apart in the source; their conditions may differ.

Tested on: HEK[STIM1] cells
Assay: STIM1-dependent Ca2+ entry in STIM1-overexpressing cells
Assay type: cell-based, human
Conditions: HEK293 overexpressing STIM1, no Tg store depletion; FIG. 13
Method: (§1) To test whether the Ca^2+ entry pathway activated by STIM1 overexpression is pharmacologically similar to endogenous SOCE, HEK[STIM1] cells were pre-incubated with increasing doses of 2-APB and STIM1-dependent Ca^2+ entry was measured.

SMILES	effect on STIM1-dependent Ca2+ entry
NCCOB(c1ccccc1)c1ccccc1 [Compound 2-APB, 2-aminoethoxydiphenyl borate]	biphasic effect; also recorded: both enhances (at low concentrations) and inhibits (at high concentrations)

Same assay, conditions: HEK[STIM1] cells; entry induced by pretreatment in Ca2+-free buffer; read-out: IC50 for inhibition of Ca2+ entry in the absence of Tg-dependent store depletion

SMILES	pIC50
NCCOB(c1ccccc1)c1ccccc1 [Compound 2-APB, 2-aminoethoxydiphenyl borate]	4.97

Same assay, conditions: thapsigargin-mediated store depletion, readdition of external calcium; read-out: IC50 for inhibition of calcium entry, HEK[STIM1] cells

SMILES	pIC50
NCCOB(c1ccccc1)c1ccccc1 [Compound 2-APB, 2-aminoethoxydiphenyl borate]	4.98

Biological target: T1, hOrail/hSTIM1 (Homo sapiens, UniProt Q96D31)
T1 construct: expressed in transfected cells
Assay: Recombinant hOrail/hSTIM1-dependent Ca2+ entry in stable cells
Assay type: cell-based
Conditions: FIG. 14

T1 sequence (Q96D31 whole entry): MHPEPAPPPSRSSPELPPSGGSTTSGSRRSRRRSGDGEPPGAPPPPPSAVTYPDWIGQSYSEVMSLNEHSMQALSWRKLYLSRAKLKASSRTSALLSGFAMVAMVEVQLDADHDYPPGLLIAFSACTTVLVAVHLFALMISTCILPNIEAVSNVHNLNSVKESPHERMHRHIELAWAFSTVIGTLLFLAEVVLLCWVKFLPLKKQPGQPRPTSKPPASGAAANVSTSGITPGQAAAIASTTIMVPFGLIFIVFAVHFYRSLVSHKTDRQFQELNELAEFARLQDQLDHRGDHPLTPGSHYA
T1 sequence (Q13586 23-685 partner): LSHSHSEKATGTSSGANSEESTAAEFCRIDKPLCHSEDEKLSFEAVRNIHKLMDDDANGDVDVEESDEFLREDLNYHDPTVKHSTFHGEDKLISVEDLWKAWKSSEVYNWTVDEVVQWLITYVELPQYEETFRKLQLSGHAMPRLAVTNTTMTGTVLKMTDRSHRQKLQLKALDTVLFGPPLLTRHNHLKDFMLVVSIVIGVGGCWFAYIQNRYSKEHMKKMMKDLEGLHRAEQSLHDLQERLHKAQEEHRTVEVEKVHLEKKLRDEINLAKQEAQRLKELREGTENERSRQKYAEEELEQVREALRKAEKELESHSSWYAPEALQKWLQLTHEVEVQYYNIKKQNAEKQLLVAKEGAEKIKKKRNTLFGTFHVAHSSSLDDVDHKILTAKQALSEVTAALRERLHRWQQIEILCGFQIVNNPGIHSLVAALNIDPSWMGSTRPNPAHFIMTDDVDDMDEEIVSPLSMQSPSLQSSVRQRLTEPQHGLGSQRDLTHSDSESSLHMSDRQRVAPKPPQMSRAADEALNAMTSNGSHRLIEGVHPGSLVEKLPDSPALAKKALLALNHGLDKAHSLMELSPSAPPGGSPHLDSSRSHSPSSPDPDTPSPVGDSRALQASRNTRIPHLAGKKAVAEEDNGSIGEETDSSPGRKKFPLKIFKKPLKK

SMILES	effect on recombinant hOrail/hSTIM1-dependent Ca2+ entry
O=C(Nc1scc(-c2ccc(Cl)cc2)c1C(=O)O)c1ccc(F)cc1 [Compound 2, 2-(4-fluorobenzamido)-4-(4-chlorophenyl)thiophene-3-carboxylic acid]	inhibition

Tested on: HEK-Zeo control cells
Assay: not given
Conditions: read-out: IC50 for inhibition of calcium entry, HEK-Zeo control cells; thapsigargin-mediated store depletion, readdition of external calcium
Method: as §1

SMILES	pIC50
NCCOB(c1ccccc1)c1ccccc1 [Compound 2-APB, 2-aminoethoxydiphenyl borate]	4.93

Tested on: store-operated calcium entry in RBL-2H3 cells
Assay: Fluorescence (FLUO-4/FLIPR384) store-operated calcium entry screening assay
Assay type: cell-based, rat
Conditions: 10 μM; cell line not stated
Method: Fluorescence-based assays were used for screening the compounds described herein, such as compounds of Formula (I) and Formula (II), which modulate intracellular calcium.
RBL-2H3 cells plated in 384-well plates were loaded for 45 min with FLUO-4-AM (2 μM final concentration) in HBSS. Cells were washed and placed in a nominally Ca^2+- and Mg^2+-free Hanks solution. One minute later, a test agent or vehicle was added. After a 15 minute incubation period, 1 μM thapsigargin (Tg) was added to inhibit the ER Ca^2+ pump and discharge intracellular Ca^2+ stores. Fifteen minutes after addition of Tg, store-operated calcium entry was initiated by adding external Ca^2+ to a final concentration of 1.8 mM and the cells monitored for a further 10-15 minutes. Calcium levels were monitored throughout the assay using a FLIPR^384 (Molecular Devices fluorimetric imaging plate reader for high throughput screening).
A similar screening assay procedure was used with HEK293 and RBL-2H3 cells.
The kinetic data from the FLIPR^384 were analyzed and then stored in a relational database (ActivityBase; IDBS). Ten quantitative parameters were calculated that define various aspects of the store-operated calcium entry response. These parameters are as follows:
Up slope: linear regression of the increase in RFU from 2 to 30 sec after addition of Ca^2+.
Combinations of these parameters were used to characterize the compounds of Formula (I). Compounds were retested under identical conditions to confirm their activity. Compounds with confirmed activity were then analyzed for concentration-dependent effects, and subsequently, those compounds displaying concentration-dependent effects were categorized as compounds that modulate intracellular calcium.

SMILES	% Inhibition at 10 μM [%]
O=C(Nc1scc(-c2ccc(Br)cc2)c1C(=O)O)c1cc2ccccc2s1 [Compound 14, 2-(benzothien-2-ylamido)-4-(4-bromophenyl)thiophene-3-carboxylic acid]	>70
O=C(Nc1scc(-c2ccc(Cl)cc2)c1C(=O)O)c1cc2ccccc2s1 [Compound 43, 2-(benzothien-2-ylamido)-4-(4-chlorophenyl)thiophene-3-carboxylic acid]	>70
Cc1ccc(-c2csc(NC(=O)c3cc4ccccc4s3)c2C(=O)O)cc1 [Compound 44, 2-(benzothien-2-ylamido)-4-(4-methylphenyl)thiophene-3-carboxylic acid]	<70
O=C(Nc1scc(-c2ccc(Cl)cc2Cl)c1C(=O)O)c1cc2ccccc2s1 [Compound 45, 2-(benzothien-2-ylamido)-4-(2,4-dichlorophenyl)thiophene-3-carboxylic acid]	>70
O=C(Nc1scc(-c2cccc(Cl)c2)c1C(=O)O)c1cc2ccccc2s1 [Compound 46, 2-(benzothien-2-ylamido)-4-(3-chlorophenyl)thiophene-3-carboxylic acid]	>70

Same assay, conditions: Rattus norvegicus, RBL-2H3; 10 μM; cell line not stated

SMILES	inhibition at 10 µM [%]
O=C(Nc1scc(-c2ccc(Cl)c(Cl)c2)c1C(=O)O)c1ccc(F)cc1 [Compound 3, 2-(4-fluorobenzamido)-4-(3,4-dichlorophenyl)thiophene-3-carboxylic acid]	> 70
O=C(Nc1scc(-c2ccc(C(F)(F)F)cc2)c1C(=O)O)c1ccc(F)cc1 [Compound 4, 2-(4-fluorobenzamido)-4-(4-trifluoromethylphenyl)thiophene-3-carboxylic acid]	> 70
O=C(Nc1scc(-c2ccc(Cl)cc2)c1C(=O)O)c1ccc(Br)cc1 [Compound 17, 2-(4-bromobenzamido)-4-(4-chlorophenyl)thiophene-3-carboxylic acid]	> 70
O=C(Nc1scc(-c2ccc(Br)cc2)c1C(=O)O)c1ccc(Br)cc1 [Compound 18, 2-(4-bromobenzamido)-4-(4-bromophenyl)thiophene-3-carboxylic acid]	> 70
O=C(Nc1scc(-c2cc(Cl)cc(Cl)c2)c1C(=O)O)c1ccc(Br)cc1 [Compound 19, 2-(4-bromobenzamido)-4-(3,5-dichlorophenyl)thiophene-3-carboxylic acid]	> 70
O=C(Nc1scc(-c2cccc(Cl)c2)c1C(=O)O)c1ccc(Br)cc1 [Compound 20, 2-(4-bromobenzamido)-4-(3-chlorophenyl)thiophene-3-carboxylic acid]	< 70
Cc1ccc(-c2csc(NC(=O)c3ccc(Br)cc3)c2C(=O)O)cc1C [Compound 21, 2-(4-bromobenzamido)-4-(3,4-dimethylphenyl)thiophene-3-carboxylic acid]	> 70
O=C(Nc1scc(-c2ccc(Cl)cc2Cl)c1C(=O)O)c1cccc(F)c1 [Compound 26, 2-(3-fluorobenzamido)-4-(2,4-dichlorophenyl)thiophene-3-carboxylic acid]	> 70
O=C(Nc1scc(-c2ccc(Cl)cc2Cl)c1C(=O)O)c1ccc(Cl)cc1 [Compound 35, 2-(4-chlorobenzamido)-4-(2,4-dichlorophenyl)thiophene-3-carboxylic acid]	> 70
O=C(Nc1scc(-c2ccc(Cl)c(Cl)c2)c1C(=O)O)c1ccc(Cl)cc1 [Compound 37, 2-(4-chlorobenzamido)-4-(3,4-dichlorophenyl)thiophene-3-carboxylic acid]	< 70
Cc1ccc(-c2csc(NC(=O)c3ccc(Cl)cc3)c2C(=O)O)cc1C [Compound 38, 2-(4-chlorobenzamido)-4-(3,4-dimethylphenyl)thiophene-3-carboxylic acid]	< 70

Same assay, conditions: Rattus norvegicus; Up slope parameter; RBL-2H3 cells

SMILES	IC50 [µM]
O=C(Nc1scc(-c2ccc(Cl)cc2)c1C(=O)O)c1ccc(F)cc1 [Compound 2, 2-(4-fluorobenzamido)-4-(4-chlorophenyl)thiophene-3-carboxylic acid]	2.3
O=C(Nc1scc(-c2ccc(Cl)c(Cl)c2)c1C(=O)O)c1ccc(F)cc1 [Compound 3, 2-(4-fluorobenzamido)-4-(3,4-dichlorophenyl)thiophene-3-carboxylic acid]	3.3
O=C(Nc1scc(-c2ccc(Br)cc2)c1C(=O)O)c1cccc(F)c1 [Compound 11, 2-(3-fluorobenzamido)-4-(4-bromophenyl)thiophene-3-carboxylic acid]	0.8
O=C(Nc1scc(-c2ccc(Br)cc2)c1C(=O)O)c1ccc(Cl)cc1 [Compound 12, 2-(4-chlorobenzamido)-4-(4-bromophenyl)thiophene-3-carboxylic acid]	1.2
Cc1cccc(C(=O)Nc2scc(-c3ccc(Br)cc3)c2C(=O)O)c1 [Compound 15, 2-(3-methylbenzamido)-4-(4-bromophenyl)thiophene-3-carboxylic acid]	2.6
Cc1ccc(-c2csc(NC(=O)c3ccc(Br)cc3)c2C(=O)O)cc1 [Compound 16, 2-(4-bromobenzamido)-4-(4-methylphenyl)thiophene-3-carboxylic acid]	0.6
O=C(Nc1scc(-c2ccc(Cl)cc2)c1C(=O)O)c1ccc(Br)cc1 [Compound 17, 2-(4-bromobenzamido)-4-(4-chlorophenyl)thiophene-3-carboxylic acid]	1
O=C(Nc1scc(-c2ccc(Br)cc2)c1C(=O)O)c1ccc(Br)cc1 [Compound 18, 2-(4-bromobenzamido)-4-(4-bromophenyl)thiophene-3-carboxylic acid]	1.3
O=C(Nc1scc(-c2cc(Cl)cc(Cl)c2)c1C(=O)O)c1ccc(Br)cc1 [Compound 19, 2-(4-bromobenzamido)-4-(3,5-dichlorophenyl)thiophene-3-carboxylic acid]	1.6
O=C(Nc1scc(-c2cccc(Cl)c2)c1C(=O)O)c1ccc(Br)cc1 [Compound 20, 2-(4-bromobenzamido)-4-(3-chlorophenyl)thiophene-3-carboxylic acid]	4
Cc1ccc(-c2csc(NC(=O)c3ccc(Br)cc3)c2C(=O)O)cc1C [Compound 21, 2-(4-bromobenzamido)-4-(3,4-dimethylphenyl)thiophene-3-carboxylic acid]	4.6
O=C(Nc1scc(-c2ccc(Cl)cc2)c1C(=O)O)c1cccc(F)c1 [Compound 25, 2-(3-fluorobenzamido)-4-(4-chlorophenyl)thiophene-3-carboxylic acid]	1.3
O=C(Nc1scc(-c2ccc(Cl)cc2Cl)c1C(=O)O)c1cccc(F)c1 [Compound 26, 2-(3-fluorobenzamido)-4-(2,4-dichlorophenyl)thiophene-3-carboxylic acid]	2.1
O=C(Nc1scc(-c2ccc(Cl)cc2)c1C(=O)O)c1ccc(Cl)cc1 [Compound 33, 2-(4-chlorobenzamido)-4-(4-chlorophenyl)thiophene-3-carboxylic acid]	1
Cc1ccc(-c2csc(NC(=O)c3ccc(Cl)cc3)c2C(=O)O)cc1 [Compound 34, 2-(4-chlorobenzamido)-4-(4-methylphenyl)thiophene-3-carboxylic acid]	1
O=C(Nc1scc(-c2ccc(Cl)cc2Cl)c1C(=O)O)c1ccc(Cl)cc1 [Compound 35, 2-(4-chlorobenzamido)-4-(2,4-dichlorophenyl)thiophene-3-carboxylic acid]	1.6
O=C(Nc1scc(-c2ccc(F)cc2)c1C(=O)O)c1ccc(Cl)cc1 [Compound 36, 2-(4-chlorobenzamido)-4-(4-fluorophenyl)thiophene-3-carboxylic acid]	2.4
O=C(Nc1scc(-c2ccc(Cl)c(Cl)c2)c1C(=O)O)c1ccc(Cl)cc1 [Compound 37, 2-(4-chlorobenzamido)-4-(3,4-dichlorophenyl)thiophene-3-carboxylic acid]	3
Cc1ccc(-c2csc(NC(=O)c3ccc(Cl)cc3)c2C(=O)O)cc1C [Compound 38, 2-(4-chlorobenzamido)-4-(3,4-dimethylphenyl)thiophene-3-carboxylic acid]	3.8
Cc1cccc(C(=O)Nc2scc(-c3ccc(Cl)cc3)c2C(=O)O)c1 [Compound 50, 2-(3-methylbenzamido)-4-(4-chlorophenyl)thiophene-3-carboxylic acid]	1.2
Cc1ccc(-c2csc(NC(=O)c3cccc(C)c3)c2C(=O)O)cc1 [Compound 51, 2-(3-methylbenzamido)-4-(4-methylphenyl)thiophene-3-carboxylic acid]	3

Same assay, conditions: Up slope parameter; RBL-2H3 cells

SMILES	IC50 [µM]
O=C(Nc1scc(-c2ccc(Br)cc2)c1C(=O)O)c1cc2ccccc2s1 [Compound 14, 2-(benzothien-2-ylamido)-4-(4-bromophenyl)thiophene-3-carboxylic acid]	2.4
O=C(Nc1scc(-c2ccc(Cl)cc2)c1C(=O)O)c1cc2ccccc2s1 [Compound 43, 2-(benzothien-2-ylamido)-4-(4-chlorophenyl)thiophene-3-carboxylic acid]	1
Cc1ccc(-c2csc(NC(=O)c3cc4ccccc4s3)c2C(=O)O)cc1 [Compound 44, 2-(benzothien-2-ylamido)-4-(4-methylphenyl)thiophene-3-carboxylic acid]	1.3
O=C(Nc1scc(-c2ccc(Cl)cc2Cl)c1C(=O)O)c1cc2ccccc2s1 [Compound 45, 2-(benzothien-2-ylamido)-4-(2,4-dichlorophenyl)thiophene-3-carboxylic acid]	2.4
O=C(Nc1scc(-c2cccc(Cl)c2)c1C(=O)O)c1cc2ccccc2s1 [Compound 46, 2-(benzothien-2-ylamido)-4-(3-chlorophenyl)thiophene-3-carboxylic acid]	10.7

Biological target: T1, hOrail/hSTIM1
Assay: Monster ICRAC in cells stably overexpressing hOrail/hSTIM1
Assay type: cell-based
Conditions: FIG. 15

SMILES	effect on Monster ICRAC
O=C(Nc1scc(-c2ccc(Cl)cc2)c1C(=O)O)c1ccc(F)cc1 [Compound 2, 2-(4-fluorobenzamido)-4-(4-chlorophenyl)thiophene-3-carboxylic acid]	inhibit
